This is an account of results in US20250122182A1 (Isosterix, Inc., priority 2023, published 2025).

Usually inhibition stands for the change of the read-out against control, counted positive when it falls.

The target of this test is Recombinant KAT6A/MOZ (488-778) protein (Homo sapiens (Human), UniProt Q92794). Nature of the test: KAT6A AlphaLISA Inhibition Screening Assay. The test is classed as biochemical. Conditions: for inhibition at 1 µM: read-out: Average Kat6A % inhibition @ 1 μM; for inhibition at 10 µM: read-out: Average Kat6A % inhibition @ 10 μM. Summed up:
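AlphaLISA read-out with anti-acetyl-lysine acceptor and streptavidin donor beads, % inhibition relative to vehicle. Reaction: biotinylated histone H3 1-21 (200 nM) and acetyl-CoA (400 nM) with KAT6A 488-778 (25 nM), 120 min at room temperature, pH 8.0, 330 nM TSA, after 60 or 10 min enzyme–compound pre-incubation; 10-point 3-fold series from 10 μM.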
In general terms: Alpha assays give light when donor and acceptor beads are brought close together.

Recombinant KAT6A/MOZ (488-778) protein, sequence (Q92794 488-778): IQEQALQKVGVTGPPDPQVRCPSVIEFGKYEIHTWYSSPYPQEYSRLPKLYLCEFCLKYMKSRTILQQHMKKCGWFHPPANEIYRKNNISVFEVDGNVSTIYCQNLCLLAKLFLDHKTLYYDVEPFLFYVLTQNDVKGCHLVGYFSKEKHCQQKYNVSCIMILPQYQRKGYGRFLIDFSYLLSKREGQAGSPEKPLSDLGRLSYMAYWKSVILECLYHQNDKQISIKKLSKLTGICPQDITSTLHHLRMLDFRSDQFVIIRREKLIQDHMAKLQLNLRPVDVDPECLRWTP

Take `CCc1ccc(OC)c(S(=O)(=O)Nc2noc3cc(Cn4cc(CNC(N)=O)cn4)cc(OC)c23)c1` [Syn. Ex. 90, 5-ethyl-2-methoxy-N-(4-methoxy-6-((4-(ureidomethyl)-1H-pyrazol-1-yl)methyl)benzo[d]isoxazol-3-yl)benzenesulfonamide]: where the note is “1 μM test compound”, the inhibition at 1 µM stood at 99%. For the same molecule, the inhibition at 10 µM (10 μM test compound) was 100%.

For the molecule `C=C(F)C(=O)NCc1cnn(Cc2cc(OC)c3c(NS(=O)(=O)c4ccc(OC)cc4OC)noc3c2)c1` [Syn. Ex. 60, N-((1-((3-((2,4-dimethoxyphenyl)sulfonamido)-4-methoxybenzo[d]isoxazol-6-yl)methyl)-1H-pyrazol-4-yl)methyl)-2-fluoroacrylamide], the inhibition at 1 µM (1 μM test compound) worked out at 93%. Further, the inhibition at 10 µM (10 μM test compound) was found to be 100%.

For `COC(=O)NCc1cnn(Cc2cc(OC)c3c(NS(=O)(=O)c4cc5c(cc4OC)CCCC5)noc3c2)c1` [Syn. Ex. 139, methyl ((1-((4-methoxy-3-((3-methoxy-5,6,7,8-tetrahydronaphthalene)-2-sulfonamido)benzo[d]isoxazol-6-yl)methyl)-1H-pyrazol-4-yl)methyl)carbamate], the “Average Kat6A % inhibition @ 1 μM” value (1 μM test compound) is 119%. Further, where the note is “10 μM test compound”, the “Average Kat6A % inhibition @ 10 μM” value worked out at 114%.

As to `C#CC(=O)NCc1cnc(Oc2cc(OC)c3c(NS(=O)(=O)c4cc(CC)ccc4OC)noc3c2)s1` [Syn. Ex. 103, N-((2-((3-((5-ethyl-2-methoxyphenyl)sulfonamido)-4-methoxybenzo[d]isoxazol-6-yl)oxy)thiazol-5-yl)methyl)propiolamide], the inhibition at 1 µM (1 μM test compound) came to 97%. In addition, the inhibition at 10 µM (10 μM test compound) stood at 99%.

Regarding `COC(=O)NCc1cnn(Cc2cc3onc(NS(=O)(=O)c4cc(F)ccc4OC)c3c3c2CCCO3)c1` [Syn. Ex. 124, methyl ((1-((9-((5-fluoro-2-methoxyphenyl)sulfonamido)-3,4-dihydro-2H-chromeno[8,7-d]isoxazol-5-yl)methyl)-1H-pyrazol-4-yl)methyl)carbamate], under “1 μM test compound”, the inhibition at 1 µM was 100%. Also, where the note is “10 μM test compound”, the inhibition at 10 µM worked out at 100%.

In the case of `CCc1ccc(OCc2ncc[nH]2)c(S(=O)(=O)Nc2noc3cc(Cn4cc(CNC(=O)OC)cn4)cc(OC)c23)c1` [Syn. Ex. 116, methyl ((1-((3-((2-((1H-imidazol-2-yl)methoxy)-5-ethylphenyl)sulfonamido)-4-methoxybenzo[d]isoxazol-6-yl)methyl)-1H-pyrazol-4-yl)methyl)carbamate], where the note is “1 μM test compound”, the inhibition at 1 µM turned out to be 100%. Besides, the inhibition at 10 µM (10 μM test compound) worked out at 100%.

As to `C=C(Cl)C(=O)NCc1cnn(Cc2cc(OC)c3c(NS(=O)(=O)c4cc(CC)ccc4OC)noc3c2)c1` [Syn. Ex. 35, 2-chloro-N-((1-((3-((5-ethyl-2-methoxyphenyl)sulfonamido)-4-methoxybenzo[d]isoxazol-6-yl)methyl)-1H-pyrazol-4-yl)methyl)acrylamide], the inhibition at 1 µM (1 μM test compound) came to 100%. In addition, where the note is “10 μM test compound”, the inhibition at 10 µM stood at 100%.

As to `CCc1ccc(OC)c(S(=O)(=O)Nc2noc3cc(Cn4cc(CNC(=O)OC)cn4)c4c(c23)OCCC4)c1` [Syn. Ex. 97, methyl ((1-((9-((5-ethyl-2-methoxyphenyl)sulfonamido)-3,4-dihydro-2H-chromeno[8,7-d]isoxazol-5-yl)methyl)-1H-pyrazol-4-yl)methyl)carbamate], where the note is “1 μM test compound”, the inhibition at 1 µM was found to be 100%. In addition, under “10 μM test compound”, the inhibition at 10 µM is 100%.

On to `COC(=O)NCc1cnn(Cc2cc3onc(NS(=O)(=O)c4ccccc4OC)c3c3c2CCO3)c1` [Syn. Ex. 134, methyl ((1-((8-((2-methoxyphenyl)sulfonamido)-2,3-dihydrobenzofuro[7,6-d]isoxazol-4-yl)methyl)-1H-pyrazol-4-yl)methyl)carbamate], for which, under “1 μM test compound”, the inhibition at 1 µM came out at 97%. The inhibition at 10 µM (10 μM test compound) was 101%.

For the molecule `C#CC(=O)N1Cc2cnn(Cc3cc(OC)c4c(NS(=O)(=O)c5cc(OC)ccc5OC)noc4c3)c2C1` [Syn. Ex. 4, 2,5-dimethoxy-N-(4-methoxy-6-((5-propioloyl-5,6-dihydropyrrolo[3,4-c]pyrazol-1(4H)-yl)methyl)benzo[d]isoxazol-3-yl)benzenesulfonamide], where the note is “1 μM test compound”, the inhibition at 1 µM was determined as 100%. Moreover, the inhibition at 10 µM (10 μM test compound) was found to be 100%.

Take `CCc1ccc(OC)c(S(=O)(=O)Nc2noc3cc(Cn4cc(CNC(=O)OCCO)cn4)cc(OC)c23)c1` [Syn. Ex. 34, 2-hydroxyethyl ((1-((3-((5-ethyl-2-methoxyphenyl)sulfonamido)-4-methoxybenzo[d]isoxazol-6-yl)methyl)-1H-pyrazol-4-yl)methyl)carbamate]: under “1 μM test compound”, the inhibition at 1 µM was 86%. Besides, the inhibition at 10 µM (10 μM test compound) was found to be 100%.

Turning to `C=C(F)C(=O)NCc1cnn(Cc2cc(OC)c3c(NS(=O)(=O)c4cc(CC)ccc4OCC(N)=O)noc3c2)c1` [Syn. Ex. 45, N-((1-((3-((2-(2-amino-2-oxoethoxy)-5-ethylphenyl)sulfonamido)-4-methoxybenzo[d]isoxazol-6-yl)methyl)-1H-pyrazol-4-yl)methyl)-2-fluoroacrylamide], where the note is “1 μM test compound”, the inhibition at 1 µM came to 85%. Also, under “10 μM test compound”, the inhibition at 10 µM came out at 99%.

On to `CCc1ccc(OC)c(S(=O)(=O)Nc2noc3cc(Cn4cc(CNS(=O)(=O)CCOC)cn4)cc(OC)c23)c1` [Syn. Ex. 18, 5-ethyl-2-methoxy-N-(4-methoxy-6-((4-(((2-methoxyethyl)sulfonamido)methyl)-1H-pyrazol-1-yl)methyl)benzo[d]isoxazol-3-yl)benzenesulfonamide], for which, under “1 μM test compound”, the inhibition at 1 µM is 97%. Moreover, the inhibition at 10 µM (10 μM test compound) was determined as 98%.

As to `C=C(F)C(=O)NCc1cnn(Cc2cc(OC)c3c(NS(=O)(=O)c4cc(CC)ccc4OCc4ncon4)noc3c2)c1` [Syn. Ex. 73, N-((1-((3-((2-((1,2,4-oxadiazol-3-yl)methoxy)-5-ethylphenyl)sulfonamido)-4-methoxybenzo[d]isoxazol-6-yl)methyl)-1H-pyrazol-4-yl)methyl)-2-fluoroacrylamide], the inhibition at 1 µM (1 μM test compound) was determined as 100%. The inhibition at 10 µM (10 μM test compound) worked out at 100%.

For the molecule `COC(=O)NCc1cnn(Cc2cc(OC)c3c(NS(=O)(=O)c4cc(C(F)F)ccc4OC)noc3c2)c1` [Syn. Ex. 135, methyl ((1-((3-((5-(difluoromethyl)-2-methoxyphenyl)sulfonamido)-4-methoxybenzo[d]isoxazol-6-yl)methyl)-1H-pyrazol-4-yl)methyl)carbamate], the inhibition at 1 µM (1 μM test compound) turned out to be 96%. Further, the inhibition at 10 µM (10 μM test compound) turned out to be 97%.

As to `CCc1ccc(OC)c(S(=O)(=O)Nc2noc3cc(Cn4cc(CNC(=O)[C@H](C)F)cn4)cc(OC)c23)c1` (single isomer, unassigned) [Syn. Ex. 47b], the inhibition at 1 µM (1 μM test compound) turned out to be 96%. For the same molecule, the inhibition at 10 µM (10 μM test compound) was determined as 100%.

In the case of `CCc1ccc(OCc2nc[nH]n2)c(S(=O)(=O)Nc2noc3cc(Cn4cc(CNC(=O)OC)cn4)cc(OC)c23)c1` [Syn. Ex. 117, methyl ((1-((3-((2-((1H-1,2,4-triazol-3-yl)methoxy)-5-ethylphenyl)sulfonamido)-4-methoxybenzo[d]isoxazol-6-yl)methyl)-1H-pyrazol-4-yl)methyl)carbamate], the inhibition at 1 µM (1 μM test compound) worked out at 100%. The inhibition at 10 µM (10 μM test compound) was determined as 100%.

In the case of `C#CC(=O)N1Cc2cn(Cc3cc(OC)c4c(NS(=O)(=O)c5cc(Cl)ccc5OC)noc4c3)nc2C1` [Syn. Ex. 2, 5-chloro-2-methoxy-N-(4-methoxy-6-((5-propioloyl-5,6-dihydropyrrolo[3,4-c]pyrazol-2(4H)-yl)methyl)benzo[d]isoxazol-3-yl)benzenesulfonamide], for the setting “1 μM test compound”, the inhibition at 1 µM was 71%. In addition, the inhibition at 10 µM (10 μM test compound) was determined as 100%.
